This is an account of results in ChEMBL document CHEMBL1201862, “PubChem BioAssay data set” (2004).

Assay [1] concerns the target T1, Polyadenylate-binding protein 1 (Homo sapiens, UniProt P11940). Briefly: MLLE binding blockers, Cy5 peptide tracer – biochemical, fluorescence polarization, Cy5-PAM2 peptide, secondary, miRNA deadenylation inhibitor project, dose response (AID 602260). As to conditions: read-out: IC50_Mean. Format: functional. Background: Fluorescence polarisation rises when a labelled molecule tumbles more slowly, as on binding a larger partner.

Assay [2] relates to Streptococcus sp. 'group A'. The assay is described as follows: Streptococcus pyogenes SK(-)GAS viability under kanamycin – luminescence, BacTiterGlo, confirmation, counter-screen for streptokinase expression inhibitor project, dose response (AID 1900). The format is functional, organism-based. For orientation: The purpose of a counterscreen is to sort out artefacts and off-target activity.

The target of assay [3] is T1, Polyadenylate-binding protein 1. Briefly: MLLE domain peptide-binding blockers, IC50 – biochemical, fluorescence polarization, FITC-PAM2 peptide, dose response (AID 602259). The format is functional. As to conditions: read-out: IC50_Mean.
Assay [4] can be described thus: fluconazole-exposed Candida albicans growth modulators – fluorescence, retest, confirmation (AID 2467). The format is functional, cell-based.
For assay [5], the target named is T2, Neuropeptide Y receptor type 2 (Homo sapiens, UniProt P49146).
T2 sequence (P49146 whole entry): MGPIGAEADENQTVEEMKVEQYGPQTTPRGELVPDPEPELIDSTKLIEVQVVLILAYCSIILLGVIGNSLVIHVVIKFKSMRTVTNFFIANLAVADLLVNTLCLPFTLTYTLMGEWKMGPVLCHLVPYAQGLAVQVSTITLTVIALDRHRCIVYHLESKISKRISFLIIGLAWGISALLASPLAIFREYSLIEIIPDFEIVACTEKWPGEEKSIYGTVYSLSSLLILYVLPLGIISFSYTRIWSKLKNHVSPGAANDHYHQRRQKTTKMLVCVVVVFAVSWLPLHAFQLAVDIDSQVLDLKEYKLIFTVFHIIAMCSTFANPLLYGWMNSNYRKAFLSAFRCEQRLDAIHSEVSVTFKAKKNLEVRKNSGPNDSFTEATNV
Briefly: Fluorescence-based cell-based high-throughput dose response assay for agonists of NPY-Y2. [Related pubchem assays: 1703 (Screening assay (CNGC inhibitors).), 1359 (Screening assay (NPY-Y2 potentiators or agonists).), 1304 (Screening assay (NPY-Y1 potentiators or agonists).), 1710 (Screening assay (NPY-Y2 agonists).), 1791 (Summary AID.)]. The format is functional.

The subject of assay [6] is HEK293. Briefly: Fluorescence-based counterscreen for potentiators or agonists of NPY-Y2: cell-based high-throughput dose response assay to identify inhibitors of cyclic nucleotide gated ion channel (CNGC) activity. In this assay, the parental HEK293 cell line transfected with a cyclic-nucleotide gated ion channel (CNGC)-based cAMP sensor is used to measure inhibition of isoproterenol-induced CNGC activity by test compound. The format is functional. As to conditions: Homo sapiens.

Assay [7] deals with T3, Streptokinase A (Streptococcus pyogenes serotype M1, UniProt P10520).
T3 sequence (P10520 whole entry): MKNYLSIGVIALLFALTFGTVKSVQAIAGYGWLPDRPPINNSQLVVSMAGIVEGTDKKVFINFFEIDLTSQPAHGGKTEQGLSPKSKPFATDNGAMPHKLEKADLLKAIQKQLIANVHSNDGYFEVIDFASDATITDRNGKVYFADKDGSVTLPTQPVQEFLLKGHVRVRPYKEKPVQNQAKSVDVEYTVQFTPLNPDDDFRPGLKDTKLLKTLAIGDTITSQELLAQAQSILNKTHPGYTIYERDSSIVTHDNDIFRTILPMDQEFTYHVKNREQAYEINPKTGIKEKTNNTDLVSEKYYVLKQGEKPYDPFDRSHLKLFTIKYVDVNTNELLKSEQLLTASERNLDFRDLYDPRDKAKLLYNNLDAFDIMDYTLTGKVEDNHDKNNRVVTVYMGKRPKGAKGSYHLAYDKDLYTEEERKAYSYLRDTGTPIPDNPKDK
Briefly: viability-normalized secreted streptokinase activity reduction – plasminogen activation absorbance, OD405, dose response (AID 1914).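 Note: secreted streptokinase activity via plasminogen activation per viability signal from cell pellet.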 Format: functional, Streptococcus pyogenes M1 GAS.

The target of assay [8] is T4, Neuropeptide Y receptor type 1 (Homo sapiens, UniProt P25929).
T4 sequence (P25929 whole entry): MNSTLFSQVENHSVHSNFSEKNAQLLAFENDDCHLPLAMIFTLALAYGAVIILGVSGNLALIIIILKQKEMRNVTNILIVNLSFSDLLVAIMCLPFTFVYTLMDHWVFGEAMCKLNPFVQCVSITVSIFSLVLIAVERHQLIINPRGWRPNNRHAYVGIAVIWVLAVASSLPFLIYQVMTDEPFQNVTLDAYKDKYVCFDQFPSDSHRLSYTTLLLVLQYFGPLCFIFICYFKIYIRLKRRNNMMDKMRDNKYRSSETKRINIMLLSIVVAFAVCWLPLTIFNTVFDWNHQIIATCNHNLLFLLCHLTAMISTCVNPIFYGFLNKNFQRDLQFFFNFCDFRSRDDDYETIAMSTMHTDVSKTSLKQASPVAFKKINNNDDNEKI
The assay is described as follows: Fluorescence-based counterscreen for agonists of NPY-Y2: cell-based high-throughput dose response assay for agonists of NPY-Y1. Format: functional.

The target of assay [9] is T5, High affinity choline transporter 1 (Homo sapiens, UniProt Q9GZV3).
T5 sequence (Q9GZV3 whole entry): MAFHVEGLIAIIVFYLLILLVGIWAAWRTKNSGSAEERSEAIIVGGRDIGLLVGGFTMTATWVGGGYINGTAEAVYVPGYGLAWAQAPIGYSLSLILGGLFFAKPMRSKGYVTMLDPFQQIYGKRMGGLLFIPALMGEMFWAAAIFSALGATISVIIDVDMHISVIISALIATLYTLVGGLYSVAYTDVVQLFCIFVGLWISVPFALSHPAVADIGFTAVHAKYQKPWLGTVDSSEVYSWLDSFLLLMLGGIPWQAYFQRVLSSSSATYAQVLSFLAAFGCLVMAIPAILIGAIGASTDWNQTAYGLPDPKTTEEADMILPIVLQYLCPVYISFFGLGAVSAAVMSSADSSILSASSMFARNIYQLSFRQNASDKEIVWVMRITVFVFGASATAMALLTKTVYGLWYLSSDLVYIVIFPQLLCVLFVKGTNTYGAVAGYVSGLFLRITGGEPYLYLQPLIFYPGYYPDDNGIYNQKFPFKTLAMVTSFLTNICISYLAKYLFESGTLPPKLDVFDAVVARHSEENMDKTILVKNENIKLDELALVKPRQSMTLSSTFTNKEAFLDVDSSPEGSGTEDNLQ
The assay is described as follows: human choline transporter blockers, potency – cell-based, 5-point CRC, membrane potential dye, dose response (AID 504840). Format: functional.

The nature of assay [10]: NIH-3T3 fibroblast cytotoxicity, dose response, cytotoxicity control, cell-based, fluorescence, Alamar Blue, secondary assay (AID 2327).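 Note: NIH-3T3 mouse fibroblasts cultured with fluconazole at 8 µg/mL.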 The format is functional. For orientation: The colour change of resazurin is a common sign of viable cells or microbes.
In assay [11] the test system is Streptococcus. The assay is described as follows: GAS UMAA2166 growth inhibition – luminescence, BacTiterGlo, counter-screen for streptokinase expression inhibitor project, dose response (AID 1915).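 Note: potency for reduction of bacterial viability or growth.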 The format is functional, organism-based.
Assay [12] concerns the target T5, High affinity choline transporter 1. Briefly: human choline transporter blockers, potency – cell-based, 10-point CRC, membrane potential dye, dose response (AID 588401).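 Note: membrane potential dye fluorescence of choline-evoked depolarization via CHT.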 The format is functional.
Assay [13] can be described thus: microbe, parasite or virus in culture. As to conditions: Mycobacterium tuberculosis. The format is functional.
For assay [14], the target named is Paired box protein Pax-8 (Homo sapiens, UniProt Q06710). The assay is described as follows: PAX8 transcriptional activity inhibition in RMG-I – RMG-I cells, luciferase, cherry-pick, dose response (AID 687027).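 Note: luciferase reporter driven by Pax8 target thyroperoxidase promoter measured by SteadyGlo luminescence.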 Format: functional, cell-based.
Sequence of Paired box protein Pax-8 (Q06710 whole entry): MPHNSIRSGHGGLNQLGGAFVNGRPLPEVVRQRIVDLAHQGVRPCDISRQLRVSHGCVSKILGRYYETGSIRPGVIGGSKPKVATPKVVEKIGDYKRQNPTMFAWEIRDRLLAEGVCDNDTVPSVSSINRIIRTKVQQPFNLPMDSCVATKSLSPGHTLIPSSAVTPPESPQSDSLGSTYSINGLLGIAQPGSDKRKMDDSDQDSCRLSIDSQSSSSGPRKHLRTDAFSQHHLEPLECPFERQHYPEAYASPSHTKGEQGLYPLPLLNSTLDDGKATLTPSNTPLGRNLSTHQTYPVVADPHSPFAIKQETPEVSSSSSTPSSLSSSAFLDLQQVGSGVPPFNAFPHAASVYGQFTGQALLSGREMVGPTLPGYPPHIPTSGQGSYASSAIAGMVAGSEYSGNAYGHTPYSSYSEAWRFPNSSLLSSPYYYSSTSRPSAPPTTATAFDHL
The target of assay [15] is T6, Interleukin-8 (Homo sapiens, UniProt P10145). The assay is described as follows: Dose Response confirmation of uHTS small molecule hits for cystic fibrosis induced NFkb Inhibitors in a TNFa-induced IL8 counterscreen. The format is functional. As to conditions: read-out: IC50_Mean.
T6 sequence (P10145 whole entry): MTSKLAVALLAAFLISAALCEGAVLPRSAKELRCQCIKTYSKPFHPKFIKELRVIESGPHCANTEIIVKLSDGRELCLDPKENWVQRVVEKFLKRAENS
The target in assay [16] is T6, Interleukin-8. The assay is described as follows: Dose Response confirmation of uHTS small molecule hits for cystic fibrosis induced NFkb Inhibitors in a PAF-induced IL8 counterscreen. The format is functional. As to conditions: read-out: IC50_Mean.
Assay [17] deals with Heat shock protein HSP 90-alpha (Homo sapiens, UniProt P07900). Format: functional, organism-based.
Assay [18] concerns BJ. Briefly: BJ-TERT fibroblast viability loss – cell-based, RAS-independent, luminescence, dose response (AID 1933). The format is functional. As to conditions: Homo sapiens.
For assay [19], the target named is Luciferin 4-monooxygenase (Photinus pyralis, UniProt P08659). The assay is described as follows: inhibition of purified Photinus pyralis luciferase – biochemical, luminescence, dose response (AID 1891).
Sequence of Luciferin 4-monooxygenase (P08659 whole entry): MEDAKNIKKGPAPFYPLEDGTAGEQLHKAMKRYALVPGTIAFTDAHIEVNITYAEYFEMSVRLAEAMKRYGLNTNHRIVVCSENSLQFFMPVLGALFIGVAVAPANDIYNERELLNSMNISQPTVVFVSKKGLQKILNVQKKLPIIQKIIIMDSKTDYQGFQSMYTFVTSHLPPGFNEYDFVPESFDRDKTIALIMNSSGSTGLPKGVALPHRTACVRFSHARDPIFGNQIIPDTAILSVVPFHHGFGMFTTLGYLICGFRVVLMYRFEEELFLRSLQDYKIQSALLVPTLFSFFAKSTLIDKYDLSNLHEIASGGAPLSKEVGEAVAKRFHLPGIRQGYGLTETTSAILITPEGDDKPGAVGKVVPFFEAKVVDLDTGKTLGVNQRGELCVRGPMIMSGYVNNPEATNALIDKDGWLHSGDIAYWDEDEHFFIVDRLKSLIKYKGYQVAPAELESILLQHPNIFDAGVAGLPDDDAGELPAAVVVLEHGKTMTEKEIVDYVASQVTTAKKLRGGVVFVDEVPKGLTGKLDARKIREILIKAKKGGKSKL
Assay [20] can be described thus: DRD fibroblast viability loss – cell-based, non-viral oncogenic, luminescence, dose response (AID 1934). The format is functional. As to conditions: Homo sapiens.
For assay [21], the target named is HSP90 (Plasmodium falciparum 3D7, UniProt Q8IL32). The format is functional, organism-based.
Sequence of HSP90 (Q8IL32 whole entry): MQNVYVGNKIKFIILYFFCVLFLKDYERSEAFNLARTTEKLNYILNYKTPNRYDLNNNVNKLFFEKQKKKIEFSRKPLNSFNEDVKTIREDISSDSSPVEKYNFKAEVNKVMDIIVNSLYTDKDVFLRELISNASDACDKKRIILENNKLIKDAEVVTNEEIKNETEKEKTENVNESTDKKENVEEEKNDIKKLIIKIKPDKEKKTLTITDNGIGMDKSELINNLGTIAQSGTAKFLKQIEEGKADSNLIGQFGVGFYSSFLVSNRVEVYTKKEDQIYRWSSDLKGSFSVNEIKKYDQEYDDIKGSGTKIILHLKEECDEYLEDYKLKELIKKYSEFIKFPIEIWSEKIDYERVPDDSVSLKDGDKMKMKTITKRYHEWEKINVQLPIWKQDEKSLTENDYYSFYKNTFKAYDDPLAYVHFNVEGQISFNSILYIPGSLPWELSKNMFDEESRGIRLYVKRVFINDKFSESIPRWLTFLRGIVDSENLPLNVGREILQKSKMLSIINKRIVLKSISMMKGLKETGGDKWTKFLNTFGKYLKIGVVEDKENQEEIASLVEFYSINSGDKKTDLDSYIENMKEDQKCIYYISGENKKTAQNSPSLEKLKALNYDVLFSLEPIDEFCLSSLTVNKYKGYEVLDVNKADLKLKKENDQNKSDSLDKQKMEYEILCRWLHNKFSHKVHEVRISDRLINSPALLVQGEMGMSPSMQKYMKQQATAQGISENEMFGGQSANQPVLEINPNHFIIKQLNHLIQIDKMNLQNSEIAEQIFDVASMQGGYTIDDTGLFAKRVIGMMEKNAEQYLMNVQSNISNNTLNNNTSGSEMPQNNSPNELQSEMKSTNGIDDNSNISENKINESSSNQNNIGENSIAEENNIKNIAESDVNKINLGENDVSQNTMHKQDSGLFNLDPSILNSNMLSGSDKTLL
Assay [22] can be described thus: Luminescence Cell-Based Dose Confirmation HTS to Identify Inhibitors of Platelet Dense Granule Release. [Related pubchem assays: 1663 (Primary HTS), 1678 (Summary of Project)]. The format is functional.
The test system of assay [23] is BJ. The assay is described as follows: BJ-TERT-LT-ST fibroblast viability loss – cell-based, RAS-independent, luminescence, dose response (AID 1935).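 Note: BJ fibroblasts immortalized with TERT plus LT and ST oncogenes.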 The format is functional. As to conditions: Homo sapiens.
The subject of assay [24] is BJ. Briefly: cells. The format is functional, cell-based. As to conditions: Homo sapiens.
Assay [25] deals with Cytochrome P450 2C19 (Homo sapiens, UniProt P33261). The assay is described as follows: Cytochrome panel assay with activity outcomes. Panel member name: p450-cyp2c19 Compounds with AC50 equal or less than 10 uM are considered active. As to conditions: read-out: AC50. The format is functional.
Sequence of Cytochrome P450 2C19 (P33261 whole entry): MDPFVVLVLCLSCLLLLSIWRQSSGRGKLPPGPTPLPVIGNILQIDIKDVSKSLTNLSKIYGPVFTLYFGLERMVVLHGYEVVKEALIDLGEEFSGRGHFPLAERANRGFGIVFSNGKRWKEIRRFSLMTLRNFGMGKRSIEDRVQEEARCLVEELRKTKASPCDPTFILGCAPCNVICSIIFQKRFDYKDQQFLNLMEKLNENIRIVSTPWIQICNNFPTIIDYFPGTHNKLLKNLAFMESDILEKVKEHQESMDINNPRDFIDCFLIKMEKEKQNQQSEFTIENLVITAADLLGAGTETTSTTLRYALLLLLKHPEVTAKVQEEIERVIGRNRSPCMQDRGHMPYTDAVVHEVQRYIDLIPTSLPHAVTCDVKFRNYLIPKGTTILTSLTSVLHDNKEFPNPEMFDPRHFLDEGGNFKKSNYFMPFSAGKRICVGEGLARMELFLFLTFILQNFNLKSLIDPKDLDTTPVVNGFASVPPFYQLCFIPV
The target in assay [26] is Cytochrome P450 3A4 (Homo sapiens, UniProt P08684).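 Note: CYP3A4 tested as one member of a cytochrome P450 panel screen.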
Sequence of Cytochrome P450 3A4 (P08684 whole entry): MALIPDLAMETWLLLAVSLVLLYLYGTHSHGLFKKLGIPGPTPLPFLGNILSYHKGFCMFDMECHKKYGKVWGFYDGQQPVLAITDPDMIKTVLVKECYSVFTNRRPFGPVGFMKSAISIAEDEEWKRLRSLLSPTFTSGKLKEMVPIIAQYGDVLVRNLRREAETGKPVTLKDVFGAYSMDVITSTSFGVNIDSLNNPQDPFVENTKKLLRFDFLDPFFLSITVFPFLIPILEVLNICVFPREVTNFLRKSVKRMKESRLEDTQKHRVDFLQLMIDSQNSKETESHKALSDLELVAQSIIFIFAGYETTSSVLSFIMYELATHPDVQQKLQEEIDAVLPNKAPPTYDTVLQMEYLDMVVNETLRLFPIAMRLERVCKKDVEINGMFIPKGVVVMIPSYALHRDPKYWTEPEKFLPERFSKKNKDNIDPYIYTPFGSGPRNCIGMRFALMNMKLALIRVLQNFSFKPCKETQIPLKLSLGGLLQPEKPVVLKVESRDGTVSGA
The target in assay [27] is Cytochrome P450 2C9 (Homo sapiens, UniProt P11712).
Sequence of Cytochrome P450 2C9 (P11712 whole entry): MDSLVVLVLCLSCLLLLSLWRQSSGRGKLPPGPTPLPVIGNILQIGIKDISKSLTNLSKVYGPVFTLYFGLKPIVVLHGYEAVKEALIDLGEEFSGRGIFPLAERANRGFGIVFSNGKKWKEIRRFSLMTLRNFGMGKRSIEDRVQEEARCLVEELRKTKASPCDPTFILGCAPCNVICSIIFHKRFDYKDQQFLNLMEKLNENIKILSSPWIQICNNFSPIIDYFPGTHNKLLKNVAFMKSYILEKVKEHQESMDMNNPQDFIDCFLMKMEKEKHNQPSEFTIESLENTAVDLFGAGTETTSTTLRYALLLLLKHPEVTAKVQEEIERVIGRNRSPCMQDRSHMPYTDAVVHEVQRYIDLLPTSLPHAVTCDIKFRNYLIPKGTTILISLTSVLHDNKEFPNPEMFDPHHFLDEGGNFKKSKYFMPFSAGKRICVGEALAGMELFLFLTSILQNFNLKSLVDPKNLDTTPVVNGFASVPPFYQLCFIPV
Assay [28] deals with Photoreceptor-specific nuclear receptor (Homo sapiens, UniProt Q9Y5X4). Format: functional, cell-based.
Sequence of Photoreceptor-specific nuclear receptor (Q9Y5X4 whole entry): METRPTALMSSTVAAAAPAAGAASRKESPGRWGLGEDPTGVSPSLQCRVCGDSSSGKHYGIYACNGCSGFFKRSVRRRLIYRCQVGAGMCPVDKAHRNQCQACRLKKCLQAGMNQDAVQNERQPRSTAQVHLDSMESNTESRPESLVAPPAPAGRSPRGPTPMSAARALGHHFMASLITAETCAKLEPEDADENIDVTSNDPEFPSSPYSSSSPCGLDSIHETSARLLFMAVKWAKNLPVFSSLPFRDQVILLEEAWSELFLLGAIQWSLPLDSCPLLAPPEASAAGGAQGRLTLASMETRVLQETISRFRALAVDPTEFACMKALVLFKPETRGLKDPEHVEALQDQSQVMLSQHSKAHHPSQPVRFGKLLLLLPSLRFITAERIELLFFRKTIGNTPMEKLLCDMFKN
For assay [29], the system named is SN12K1. Briefly: cells. Format: functional. As to conditions: Homo sapiens.
Assay [30] concerns P388. The assay is described as follows: cells. Format: functional. As to conditions: Mus musculus.
For assay [31], the system named is P388/ADR. Briefly: cells. Format: functional. As to conditions: Mus musculus.

Activity calls are given as the source filed them.

T1 sequence (P11940 whole entry): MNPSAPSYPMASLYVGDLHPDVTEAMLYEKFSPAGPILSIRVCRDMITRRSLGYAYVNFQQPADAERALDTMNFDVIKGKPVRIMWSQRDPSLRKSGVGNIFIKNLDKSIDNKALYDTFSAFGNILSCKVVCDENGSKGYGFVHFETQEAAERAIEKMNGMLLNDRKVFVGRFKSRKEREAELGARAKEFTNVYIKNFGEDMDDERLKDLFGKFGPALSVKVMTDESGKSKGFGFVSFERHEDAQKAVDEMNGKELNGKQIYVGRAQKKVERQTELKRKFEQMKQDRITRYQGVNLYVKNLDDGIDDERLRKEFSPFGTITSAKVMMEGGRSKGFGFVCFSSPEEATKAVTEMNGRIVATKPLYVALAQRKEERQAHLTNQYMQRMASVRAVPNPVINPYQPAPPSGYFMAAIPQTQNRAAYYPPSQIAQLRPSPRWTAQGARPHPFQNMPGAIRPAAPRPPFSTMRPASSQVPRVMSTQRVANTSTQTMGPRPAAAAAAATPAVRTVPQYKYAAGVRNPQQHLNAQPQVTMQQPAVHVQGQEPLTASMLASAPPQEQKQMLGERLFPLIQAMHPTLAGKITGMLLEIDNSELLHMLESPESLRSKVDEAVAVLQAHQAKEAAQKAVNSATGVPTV

`N#C/C(=N/Nc1ccc(OC(F)(F)F)cc1)C(N)=S`: the IC50 in assay [1] is > 66 µM (inactive); in assay [3], > 66 µM (inactive); in assay [9], 7.16 µM (active); in [12], 0.631 µM (active). Further, the EC50 (commonly the concentration at which the effect is half-maximal) in assay [2] was 44.9 µM (active); in assay [4], 1.67 µM (active); in assay [5], > 35.4 µM (not active); in [6], > 35.4 µM (not active); in assay [7], > 150 µM (not active); in [8], 33.3 µM (not active). For the same compound, the values for the EC50 in assay [10] and in assay [11] were 15 µM (active) and > 150 µM (not active), respectively. Further, the CC50 in [13] was 8.05 µM (active).
For `CCOC(=O)Nc1ccc2c(c1)N(C(=O)CCN(CC)CC)c1ccccc1[S+]2[O-]` (stereo unspecified), the AC50 (usually the concentration giving half of the maximal activity seen) in assay [14] is 7.06 µM (active). Further, the IC50 is 1.01 µM (active) in assay [15] and 1.12 µM (active) in assay [16].
For the compound `C(=C\c1nc2ccccc2[nH]1)/c1ccccc1`, the results for the half-maximal activity concentration (AC50) in [17] and in assay [21] were 44 µM (active) and 106 µM (active), respectively. The EC50 in [18] was 6.89 µM (active); in assay [19], 0.949 µM (active); in [20] it was 6.84 µM (active); in assay [22], 2.44 µM (active); in assay [23] it was > 150 µM (inconclusive); in assay [24], 8.19 µM (active).
In the case of `O=c1cc(N2CCN(c3ccccc3)CC2)[nH]c(=O)n1C1CCCCC1`, the figures for the concentration at half-maximal activity (AC50) in [25], in [26] and in assay [27] were 3.16 µM (inconclusive), 6.31 µM (inconclusive) and 15.8 µM (inconclusive), respectively. Besides, the IC50 in assay [28] is 0.511 µM (active).
As to `Nc1ncnc2c1ncn2C1CCC(CO)O1` (stereo unspecified), the GI50 (in general, the concentration at which growth is held to half of that of the control) in [29] is > 62.4 µM (inactive); in assay [30] it was 98.6 µM (inactive); in assay [31], 69.5 µM (inactive).
